According to PMC6522510 (Nature Communications, 2019):
Where a name gives a salt, the structure may show the parent alone. Read-outs that look alike come from different tables or passages of the source.

Experiments:
Set-up in all cases: species or system AML cell lines (8); Primary HTS, single concentration about 10 uM, Cell Titer Glo viability; log10 luminescence, per cent inhibition relative to cycloheximide control
Conditions in all cases: 72 h, relative to cycloheximide control, log10 luminescence, inhibitor
[1] = tested on: CHRF288-11
[2] = tested on: CMK
[3] = tested on: CMS
[4] = tested on: M07e
[5] = tested on: ML-2
[6] = tested on: MOLM-13
[7] = tested on: MV4-11
[8] = tested on: U937

SMILES: C[C@H](CS)C(=O)N1CCC[C@H]1C(=O)O [SJ000286908-8, CAPTOPRIL]
- CHRF288-11 %inh ([1]; CHRF288-11 %inh, 10 µM): 4.869%
- CMK %inh ([2]; CMK %inh, 10 µM): 0.6591%
- CMS %inh ([3]; CMS %inh, 10 µM): -1.291%
- M07e %inh ([4]; M07e %inh, 10 µM): -2.045%
- ML-2 %inh ([5]; ML-2 %inh, 10 µM): -1.462%
- MOLM-13 %inh ([6]; MOLM-13 %inh, 10 µM): 0.1339%
- MV4-11 %inh ([7]; MV4-11 %inh, 10 µM): -2.616%
- U937 %inh ([8]; U937 %inh, 10 µM): -1.359%

SMILES: C[C@H](CS)C(=O)N1CCC[C@H]1C(=O)O [SJ000286908-9, CAPTOPRIL]
- CHRF288-11 %inh ([1]; CHRF288-11 %inh, 10 µM): -5.11%
- CMK %inh ([2]; CMK %inh, 10 µM): -4.021%
- CMS %inh ([3]; CMS %inh, 10 µM): 0.9516%
- M07e %inh ([4]; M07e %inh, 10 µM): 0.8569%
- ML-2 %inh ([5]; ML-2 %inh, 10 µM): -0.6374%
- MOLM-13 %inh ([6]; MOLM-13 %inh, 10 µM): -1.689%
- MV4-11 %inh ([7]; MV4-11 %inh, 10 µM): 1.577%
- U937 %inh ([8]; U937 %inh, 10 µM): -2.673%

SMILES: C[C@H](CS)C(=O)N1CCC[C@H]1C(=O)O [SJ000286908-10, CAPTOPRIL]
- CHRF288-11 %inh ([1]; CHRF288-11 %inh, 10 µM): -3.972%
- CMK %inh ([2]; CMK %inh, 10 µM): 3.343%
- CMS %inh ([3]; CMS %inh, 10 µM): -3.33%
- M07e %inh ([4]; M07e %inh, 10 µM): -1.533%
- ML-2 %inh ([5]; ML-2 %inh, 10 µM): -0.772%
- MOLM-13 %inh ([6]; MOLM-13 %inh, 10 µM): 0.8092%
- MV4-11 %inh ([7]; MV4-11 %inh, 10 µM): -0.07613%
- U937 %inh ([8]; U937 %inh, 10 µM): 51.26%

SMILES: C[C@H](CS)C(=O)N1CCC[C@H]1C(=O)O [SJ000286908-11, CAPTOPRIL]
- CHRF288-11 %inh ([1]; CHRF288-11 %inh, 10 µM): -3.474%
- CMK %inh ([2]; CMK %inh, 10 µM): -6.202%
- CMS %inh ([3]; CMS %inh, 10 µM): -1.329%
- M07e %inh ([4]; M07e %inh, 10 µM): 0.3888%
- ML-2 %inh ([5]; ML-2 %inh, 10 µM): -1.011%
- MOLM-13 %inh ([6]; MOLM-13 %inh, 10 µM): 1.337%
- MV4-11 %inh ([7]; MV4-11 %inh, 10 µM): -2.697%
- U937 %inh ([8]; U937 %inh, 10 µM): -18.23%

SMILES: C[C@H](CCC(=O)O)[C@H]1CC[C@H]2[C@@H]3CC[C@@H]4C[C@H](O)CC[C@]4(C)[C@H]3CC[C@]12C [SJ000286918-3, LITHOCHOLIC ACID]
- CHRF288-11 %inh [1]: 7.532%
- CMK %inh [2]: -0.09844%
- CMS %inh [3]: 2.61%
- M07e %inh [4]: 1.09%
- ML-2 %inh [5]: 1.903%
- MOLM-13 %inh [6]: 2.496%
- MV4-11 %inh [7]: 1.619%
- U937 %inh [8]: 0.7056%

SMILES: CC1(C)O[C@@H]2C[C@H]3[C@@H]4CCC5=CC(=O)CC[C@]5(C)[C@@]4(F)[C@@H](O)C[C@]3(C)[C@]2(C(=O)CCl)O1 [SJ000286948-3, HALCINONIDE]
- CHRF288-11 %inh [1]: 0.4115%
- CMK %inh [2]: 7.614%
- CMS %inh [3]: 6.83%
- M07e %inh [4]: -3.04%
- ML-2 %inh [5]: 2.814%
- MOLM-13 %inh [6]: 15.68%
- MV4-11 %inh [7]: 4.793%
- U937 %inh [8]: 10.5%

SMILES: CCCC(CCC)C(=O)O [SJ000287008-5, VALPROATE SODIUM | VALPROIC ACID SODIUM | DIVALPROEX SODIUM | SODIUM VALPROATE | ABBOTT-44090 | NIK-313 | NIK-317 | VALPROATE SODIUM | VALPROIC ACID SODIUM SALT | | SODIUM VALPROATE | VALPROATE SODIUM | VALPROIC ACID SODIUM SALT | ABBOTT-44090 | NIK-313 | NIK-317 | | SODIUM VALPROATE | VALPROIC ACID SODIUM SALT (SODIUM VALPROATE)]
- CHRF288-11 %inh ([1]; CHRF288-11 %inh, 10 µM): 8.896%
- CMK %inh ([2]; CMK %inh, 10 µM): -3.296%
- CMS %inh ([3]; CMS %inh, 10 µM): 1.675%
- M07e %inh ([4]; M07e %inh, 10 µM): -4.206%
- ML-2 %inh ([5]; ML-2 %inh, 10 µM): 0.7854%
- MOLM-13 %inh ([6]; MOLM-13 %inh, 10 µM): -1.216%
- MV4-11 %inh ([7]; MV4-11 %inh, 10 µM): -0.02212%
- U937 %inh ([8]; U937 %inh, 10 µM): -1.54%

SMILES: CCCC(CCC)C(=O)O [SJ000287008-6, VALPROATE SODIUM | VALPROIC ACID SODIUM | DIVALPROEX SODIUM | SODIUM VALPROATE | ABBOTT-44090 | NIK-313 | NIK-317 | VALPROATE SODIUM | VALPROIC ACID SODIUM SALT | | SODIUM VALPROATE | VALPROATE SODIUM | VALPROIC ACID SODIUM SALT | ABBOTT-44090 | NIK-313 | NIK-317 | | SODIUM VALPROATE | VALPROIC ACID SODIUM SALT (SODIUM VALPROATE)]
- CHRF288-11 %inh ([1]; CHRF288-11 %inh, 10 µM): 0.5614%
- CMK %inh ([2]; CMK %inh, 10 µM): -3.672%
- CMS %inh ([3]; CMS %inh, 10 µM): -1.126%
- M07e %inh ([4]; M07e %inh, 10 µM): -0.5439%
- ML-2 %inh ([5]; ML-2 %inh, 10 µM): -1.422%
- MOLM-13 %inh ([6]; MOLM-13 %inh, 10 µM): -2.019%
- MV4-11 %inh ([7]; MV4-11 %inh, 10 µM): -1.147%
- U937 %inh ([8]; U937 %inh, 10 µM): -3.41%

SMILES: CC1(C)O[C@@H]2C[C@H]3[C@@H]4C[C@H](F)C5=CC(=O)C=C[C@]5(C)[C@@]4(F)[C@@H](O)C[C@]3(C)[C@]2(C(=O)CO)O1 [SJ000287016-2, FLUOCINOLONE ACETONIDE]
- CHRF288-11 %inh [1]: 4.658%
- CMK %inh [2]: -1.286%
- CMS %inh [3]: 9.034%
- M07e %inh [4]: -0.198%
- ML-2 %inh [5]: 2.188%
- MOLM-13 %inh [6]: 1.204%
- MV4-11 %inh [7]: 1.404%
- U937 %inh [8]: 7.141%

SMILES: C[C@]12CCC(=O)C=C1CC[C@@H]1[C@@H]2C(=O)C[C@@]2(C)[C@H]1CC[C@]2(O)C(=O)CO [SJ000287023-7, CORTISONE]
- CHRF288-11 %inh [1]: 8.551%
- CMK %inh [2]: -2.132%
- CMS %inh [3]: -0.2521%
- M07e %inh [4]: -0.4313%
- ML-2 %inh [5]: -0.1775%
- MOLM-13 %inh [6]: -2.413%
- MV4-11 %inh [7]: -0.1807%
- U937 %inh [8]: -1.735%

SMILES: CCOC(=O)[C@H](CCc1ccccc1)N[C@@H](C)C(=O)N1[C@H](C(=O)O)C[C@@H]2CCC[C@@H]21 [SJ000287048-3]
- CHRF288-11 %inh [1]: -4.815%
- CMK %inh [2]: 1.362%
- CMS %inh [3]: -0.1854%
- M07e %inh [4]: -2.965%
- ML-2 %inh [5]: -0.556%
- MOLM-13 %inh [6]: -1.2%
- MV4-11 %inh [7]: 3.659%
- U937 %inh [8]: 1.846%

SMILES: C[C@@H]1C[C@H]2[C@@H]3C[C@H](F)C4=CC(=O)C=C[C@]4(C)[C@@]3(F)[C@@H](O)C[C@]2(C)[C@@]1(O)C(=O)CO [SJ000287102-3, FLUMETHASONE]
- CHRF288-11 %inh [1]: 4.435%
- CMK %inh [2]: 4.189%
- CMS %inh [3]: 2.822%
- M07e %inh [4]: -0.252%
- ML-2 %inh [5]: 1.1%
- MOLM-13 %inh [6]: 0.6987%
- MV4-11 %inh [7]: -0.9154%
- U937 %inh [8]: 4.356%

SMILES: CC1(C)O[C@@H]2C[C@H]3[C@@H]4C[C@H](F)C5=CC(=O)CC[C@]5(C)[C@H]4[C@@H](O)C[C@]3(C)[C@]2(C(=O)CO)O1 [SJ000287138-3, FLURANDRENOLIDE]
- CHRF288-11 %inh [1]: 7.802%
- CMK %inh [2]: -0.8734%
- CMS %inh [3]: 0.1237%
- M07e %inh [4]: -0.6056%
- ML-2 %inh [5]: -1.728%
- MOLM-13 %inh [6]: -1.421%
- MV4-11 %inh [7]: -1.501%
- U937 %inh [8]: 5.849%

SMILES: CC(C)(C)c1ccc(C(O)CCCN2CCC(C(O)(c3ccccc3)c3ccccc3)CC2)cc1 (stereo not shown) [SJ000287189-5, TERFENADINE]
- CHRF288-11 %inh [1]: 1.988%
- CMK %inh [2]: -4.344%
- CMS %inh [3]: -3.743%
- M07e %inh [4]: 132.8%
- ML-2 %inh [5]: 1.525%
- MOLM-13 %inh [6]: -1.727%
- MV4-11 %inh [7]: 1.084%
- U937 %inh [8]: 0.7714%
